Entries after “also recorded” stand apart in the source; their conditions may differ.
What was measured:
neutrophil chemotaxis = conditions: Tanaka et al.; cited from earlier work
[1] = tested on: cytochalasin B primed neutrophils; experiment: Enzyme release from neutrophils (β-D-glucuronidase, microtiter plate); format: cell-based, human; conditions: 37° C., 30 min, FIG. 3
Procedure: Neutrophil enzyme release was measured by a modification of the method of Goldstein and colleagues.^23 Cytochalasin B (Sigma Chemical Co., St. Louis, Mo.) was stored in dimethylsulphoxide at a concentration of 5 mg/ml and diluted to a concentration of 100 μg/ml in Hanks' balanced salt solution (HBSS) immediately before use. Neutrophils were prepared as described and incubated at a cell density of 5×10^6 cells/ml for ten minutes at room temperature in the presence of Cytochalasin B (10 μg/ml). Aliquots of 100 μl of the primed cell suspension were then distributed into the wells of a 96-well microtiter plate and 100 μl of stimulant was added. The cells were then incubated at 37° C. for 30 min. The plates were centrifuged at 850 rpm for 5 min, and 100 μl of supernatant was removed. The supernatants were assayed for β-D-glucuronidase activity.
The ability of native NAF and the synthetic peptides to induce the release of β-D-glucuronidase from cytochalasin B primed neutrophils was examined using a microtiter plate technique. […]
β-D-glucuronidase was measured by determining the change in absorbance of phenolphthalein β-D-glucuronide (Sigma Chemical Co.) at 540 nm by the method of Gianetto and DeDuve.^24 The results were expressed as picomoles of substrate hydrolysed per hour.

human neutrophils = experiment: Neutrophil chemotaxis, leading front method in blind well chamber (chemotactic activity of the peptide itself); format: cell-based; conditions: for DISTANCE MOVED (% of control): control = RPMI-1640; for effect on cell migration (in words): peptide concentration of 1×10^-9 M, FIG. 1
Procedure: Each of the peptides was assayed for its ability to induce the directed migration of neutrophils towards itself. […] The distances migrated by the cells, under the influence of the various peptides, was therefore expressed as a percentage of the distance travelled in RPMI tissue culture medium alone. In the first experiments the effect of native NAF on the cells was compared to that of FMLP (FIG. I). […] None of the synthetic peptides induced chemotaxis either alone or in combination with one another when the synthetic peptides were examined under the same conditions (FIG. 2).
(§1) Human blood was anticoagulated with heparin.
(§2) Chemotaxis was performed using the leading front method as described by Zigmond and Hirsch.^21 The test material was placed in the lower well of a blind well chemotaxis chamber.^22 A five micron pore size, and 100 μl aliquot of the neutrophil preparation (1×10^6 cells/ml) in RPMI-1640 containing 1% albumin was added to the top of the filter and incubated at 37° C. for 30 min. (In some experiments neutrophils were pre-incubated in the presence of peptide for 10 min at room temperature before being added to the upper chamber.) The filter was then fixed and stained and mounted on a glass microscope slide. The leading front was determined by the position of the leading two cells. The distance that the leading two cells had moved through the filter was measured for six fields on each filter. The measurements were made with two filters for each set of conditions.

[2] = tested on: chemotaxis induced by FMLP; experiment: Specificity: effect on FMLP-induced neutrophil chemotaxis; format: cell-based, human; conditions: FMLP 5 × 10^-9 M plus peptide 1 × 10^-6 M
Excerpt: The peptides were examined to determine if any of the peptides could block the action of the native molecule. In these experiments the attractant in the lower well of the Boyden chamber contained both native NAF (1×10^-8 M) and one or more synthetic peptide(s) (1×10^-6 M) Table 2. The migration of the cells in RPMI tissue culture medium alone, or under the influence of native NAF or the individual peptides was also examined in each experiment. […] The mean migration of native NAF was an average of 79% (S.D.=3) above that of buffer alone, while the mean migration towards native NAF in the presence of NAF (3-25) was 32% (S.D.=10) and the mean migration towards native NAF in the presence of NAF (44-72) (S.D.=13) was 52% above control migration (Table 2). These reductions are statistically significant at p<0.002 by Student's t test. […]
Chemotaxis was performed using the leading front method as described by Zigmond and Hirsch.^21 The test material was placed in the lower well of a blind well chemotaxis chamber.^22 A five micron pore size, and 100 μl aliquot of the neutrophil preparation (1×10^6 cells/ml) in RPMI-1640 containing 1% albumin was added to the top of the filter and incubated at 37° C. for 30 min. […] The leading front was determined by the position of the leading two cells. The distance that the leading two cells had moved through the filter was measured for six fields on each filter. […]

[3] = tested on: Neutrophil activating factor induced human neutrophil chemotaxis; experiment: Inhibition of NAF-induced neutrophil chemotaxis; format: cell-based
Excerpt: The peptides were examined to determine if any of the peptides could block the action of the native molecule. In these experiments the attractant in the lower well of the Boyden chamber contained both native NAF (1×10^-8 M) and one or more synthetic peptide(s) (1×10^-6 M) Table 2. The migration of the cells in RPMI tissue culture medium alone, or under the influence of native NAF or the individual peptides was also examined in each experiment. […] The mean migration of native NAF was an average of 79% (S.D.=3) above that of buffer alone, while the mean migration towards native NAF in the presence of NAF (3-25) was 32% (S.D.=10) and the mean migration towards native NAF in the presence of NAF (44-72) (S.D.=13) was 52% above control migration (Table 2). These reductions are statistically significant at p<0.002 by Student's t test. These two peptides inhibited NAF induced migration by 59 and 34% respectively. When NAF was incubated in the presence of both peptides the mean migration towards native NAF was 24% (S.D.=3) above controls for a total inhibition of NAF activity of 70%. Therefore, the inhibitory effects of the peptides were approximately additive.
as §1, §2

[4] = NAF 1 × 10^-8 M plus peptide 1 × 10^-6 M in lower well
[5] = NAF 1 × 10^-8 M, neutrophils preincubated with peptide 1 × 10^-6 M (10 min, room temperature)

(7-37): peptide of Tanaka et al. corresponding to residues (7-37) of the NAF sequence (AKELRCQCIKTYSKPFHPKFIKELRVIESGP; Interleukin-8; UniProt P10145 29-59, looked up, fragment)
chemotactic activity (in words) (neutrophil chemotaxis): inactive | inhibition of chemotaxis (in words) (neutrophil chemotaxis): did not find that any of their synthetic peptides inhibited chemotaxis

(17-37): peptide of Tanaka et al. corresponding to residues (17-37) of the NAF sequence (TYSKPFHPKFIKELRVIESGP; Interleukin-8; UniProt P10145 39-59, looked up, fragment)
chemotactic activity (in words) (neutrophil chemotaxis): inactive | inhibition of chemotaxis (in words) (neutrophil chemotaxis): did not find that any of their synthetic peptides inhibited chemotaxis

(30-72): peptide of Tanaka et al. corresponding to residues (30-72) of the NAF sequence (LRVIESGPHCANTEIIVKLSDGRELCLDPKENWVQRVVEKFLK; Interleukin-8; UniProt P10145 52-94, looked up, fragment)
chemotactic activity (in words) (neutrophil chemotaxis): inactive | inhibition of chemotaxis (in words) (neutrophil chemotaxis): did not find that any of their synthetic peptides inhibited chemotaxis

FMLP
release of β-D-glucuronidase from neutrophils (in words) [1]: stimulated release from the cells was possible | DISTANCE MOVED (% of control) (human neutrophils; FMLP alone, 5 × 10^-9 M): 180 ± 17 % of control | effect on cell migration (in words) (human neutrophils): increase the cell migration

KELRCQCIKTYSKPFHPKFIKEL [NAF(3-25)]
DISTANCE MOVED (% of control) [2]: 190 ± 18 % of control | DISTANCE MOVED (% of control) (human neutrophils; synthetic peptide alone, 1 × 10^-6 M in lower well): 100 ± 6 % of control | DISTANCE MOVED (% of control) [3, 4]: 132 ± 10 % of control | INHIBITION (%) of NAF-induced neutrophil chemotaxis [3, 4]: 59 ± 13% | INHIBITION (%) of NAF-induced neutrophil chemotaxis ([3]; NAF 1 × 10^-8 M plus peptide 1 × 10^-6 M in lower well, listed as NAF (3-25)): 59% | DISTANCE MOVED (% of control) [3, 5]: 97 ± 11 % of control | INHIBITION (%) of NAF-induced neutrophil chemotaxis [3, 5]: 104 ± 14% | mean migration towards native NAF in the presence of peptide, above control migration ([3]; native NAF 1 × 10^-8 M plus synthetic peptide(s) 1 × 10^-6 M): 32% | effect on the action of native NAF (in words) ([3]; native NAF plus synthetic peptide): able to reduce neutrophil chemotaxis; also recorded: reduce the action of native NAF

Neutrophil activating factor [NAF]
release of β-D-glucuronidase from neutrophils (in words) [1]: Neither NAF nor any of the synthetic peptides caused the cells to degranulate; also recorded: failed to release β-D-glucuronidase; also recorded: None of the synthetic peptides, nor native NAF, caused release of β-D-glucuronidase | DISTANCE MOVED (% of control) (human neutrophils; NAF alone, 1 × 10^-8 M): 179 ± 3 % of control | mean migration above that of buffer alone (human neutrophils; native NAF 1 × 10^-8 M): 79% | effect on cell migration (in words) (human neutrophils): increase the cell migration
